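Step 1: Grow cells in 96-well plates. Step 2: Expose to compound for 48 hours at 5 concentrations. Step 3: Interpolate endpoints linearly; if unreached, use highest concentration. TGI: total growth inhibition.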
Experiments:
Assay in all cases: inhibition of tumour cell growth, NCI panel, 48 h
OVCAR-3 ovarian = system: OVCAR-3 ovarian
UACC-62 melanoma = system: UACC-62 melanoma
KM12 colon = system: KM12 colon
HCC-2998 colon = system: HCC-2998 colon
EKVX NSCLC = system: EKVX NSCLC
OVCAR-5 ovarian = system: OVCAR-5 ovarian
M14 melanoma = system: M14 melanoma
HOP-62 NSCLC = system: HOP-62 NSCLC
SNB-75 CNS = system: SNB-75 CNS
U251 CNS = system: U251 CNS
MDA-N = system: MDA-N
T-47D breast = system: T-47D breast
SF-295 CNS = system: SF-295 CNS
COLO 205 colon = system: COLO 205 colon
MOLT-4 leukemia = system: MOLT-4 leukemia
CAKI-1 renal = system: CAKI-1 renal
TK-10 renal = system: TK-10 renal
NCI-H522 lung = system: NCI-H522 lung
SK-MEL-28 melanoma = system: SK-MEL-28 melanoma
DU-145 prostate = system: DU-145 prostate
BT-549 breast = system: BT-549 breast
SF-268 CNS = system: SF-268 CNS
SK-MEL-5 melanoma = system: SK-MEL-5 melanoma
MDA-MB-231 breast = system: MDA-MB-231 breast
OVCAR-8 ovarian = system: OVCAR-8 ovarian
RPMI-8226 leukemia = system: RPMI-8226 leukemia
MALME-3M melanoma = system: MALME-3M melanoma
NCI-H23 lung = system: NCI-H23 lung
IGROV1 ovarian = system: IGROV1 ovarian
PC-3 prostate = system: PC-3 prostate
HT29 colon = system: HT29 colon
HL-60(TB) leukemia = system: HL-60(TB) leukemia
NCI-H226 lung = system: NCI-H226 lung
HS 578T breast = system: HS 578T breast
786-0 renal = system: 786-0 renal
RXF 393 renal = system: RXF 393 renal
SN12C renal = system: SN12C renal
MDA-MB-435 = system: MDA-MB-435
HOP-92 NSCLC = system: HOP-92 NSCLC
HCT-116 colon = system: HCT-116 colon
SK-OV-3 ovarian = system: SK-OV-3 ovarian
SW-620 colon = system: SW-620 colon
LOX IMVI melanoma = system: LOX IMVI melanoma
A498 renal = system: A498 renal
MCF7 breast = system: MCF7 breast
UO-31 renal = system: UO-31 renal
NCI/ADR-RES ovarian = system: NCI/ADR-RES ovarian
K-562 leukemia = system: K-562 leukemia
A549 NSCLC = system: A549 NSCLC
UACC-257 melanoma = system: UACC-257 melanoma
SK-MEL-2 melanoma = system: SK-MEL-2 melanoma
SNB-19 CNS = system: SNB-19 CNS
HCT-15 colon = system: HCT-15 colon
OVCAR-4 ovarian = system: OVCAR-4 ovarian
ACHN renal = system: ACHN renal
NCI-H460 lung = system: NCI-H460 lung
CCRF-CEM leukemia = system: CCRF-CEM leukemia
SF-539 CNS = system: SF-539 CNS

SMILES: O=[N+]([O-])c1cccc(-c2ncnc(-c3cccc([N+](=O)[O-])c3)n2)c1
- TGI (OVCAR-3 ovarian): > 100 µM
- TGI (UACC-62 melanoma): 95.2 µM
- TGI (KM12 colon): > 100 µM
- TGI (HCC-2998 colon): > 100 µM
- TGI (EKVX NSCLC): > 100 µM
- TGI (OVCAR-5 ovarian): > 100 µM
- TGI (M14 melanoma): > 100 µM
- TGI (HOP-62 NSCLC): 37.5 µM
- TGI (SNB-75 CNS): > 100 µM
- TGI (U251 CNS): 59.6 µM
- TGI (MDA-N): > 100 µM
- TGI (T-47D breast): > 100 µM
- TGI (SF-295 CNS): > 100 µM
- TGI (COLO 205 colon): > 100 µM
- TGI (MOLT-4 leukemia): > 100 µM
- TGI (CAKI-1 renal): 93.3 µM
- TGI (TK-10 renal): > 100 µM
- TGI (NCI-H522 lung): > 100 µM
- TGI (SK-MEL-28 melanoma): > 100 µM
- TGI (DU-145 prostate): > 100 µM
- TGI (BT-549 breast): > 100 µM
- TGI (SF-268 CNS): > 100 µM
- TGI (SK-MEL-5 melanoma): > 100 µM
- TGI (MDA-MB-231 breast): 98.2 µM
- TGI (OVCAR-8 ovarian): > 100 µM
- TGI (RPMI-8226 leukemia): > 100 µM
- TGI (MALME-3M melanoma): > 100 µM
- TGI (NCI-H23 lung): > 100 µM
- TGI (IGROV1 ovarian): > 100 µM
- TGI (PC-3 prostate): > 100 µM
- TGI (HT29 colon): > 100 µM
- TGI (HL-60(TB) leukemia): > 100 µM
- TGI (NCI-H226 lung): > 100 µM
- TGI (HS 578T breast): > 100 µM
- TGI (786-0 renal): > 100 µM
- TGI (RXF 393 renal): 62.8 µM
- TGI (SN12C renal): > 100 µM
- TGI (MDA-MB-435): > 100 µM
- TGI (HOP-92 NSCLC): 57.2 µM
- TGI (HCT-116 colon): > 100 µM
- TGI (SK-OV-3 ovarian): > 100 µM
- TGI (SW-620 colon): > 100 µM
- TGI (LOX IMVI melanoma): > 100 µM
- TGI (A498 renal): > 100 µM
- TGI (MCF7 breast): > 100 µM
- TGI (UO-31 renal): > 100 µM
- TGI (NCI/ADR-RES ovarian): > 100 µM
- TGI (K-562 leukemia): > 100 µM
- TGI (A549 NSCLC): > 100 µM
- TGI (UACC-257 melanoma): > 100 µM
- TGI (SK-MEL-2 melanoma): > 100 µM

SMILES: Clc1ccc(CSC2=NCCN2)cc1Cl
- TGI (SNB-19 CNS): > 100 µM
- TGI (OVCAR-3 ovarian): 30.3 µM
- TGI (UACC-62 melanoma): 30.5 µM
- TGI (KM12 colon): 33.5 µM
- TGI (HCC-2998 colon): 30.1 µM
- TGI (EKVX NSCLC): 24.3 µM
- TGI (OVCAR-5 ovarian): 53.3 µM
- TGI (M14 melanoma): 30.6 µM
- TGI (HOP-62 NSCLC): 47.1 µM
- TGI (U251 CNS): 27 µM
- TGI (HCT-15 colon): 31.9 µM
- TGI (MDA-N): 25 µM
- TGI (T-47D breast): 27 µM
- TGI (SF-295 CNS): > 100 µM
- TGI (COLO 205 colon): 37.9 µM
- TGI (OVCAR-4 ovarian): 27 µM
- TGI (MOLT-4 leukemia): 35.9 µM
- TGI (CAKI-1 renal): 23.5 µM
- TGI (ACHN renal): 30.9 µM
- TGI (TK-10 renal): 31.5 µM
- TGI (NCI-H522 lung): 21.5 µM
- TGI (NCI-H460 lung): 37.3 µM
- TGI (SK-MEL-28 melanoma): 35.1 µM
- TGI (DU-145 prostate): 29.7 µM
- TGI (BT-549 breast): 40.2 µM
- TGI (SF-268 CNS): 42.5 µM
- TGI (SK-MEL-5 melanoma): 26 µM
- TGI (MDA-MB-231 breast): 29.2 µM
- TGI (OVCAR-8 ovarian): 40 µM
- TGI (RPMI-8226 leukemia): 36.3 µM
- TGI (MALME-3M melanoma): 28.6 µM
- TGI (NCI-H23 lung): 35.8 µM
- TGI (IGROV1 ovarian): 39.1 µM
- TGI (PC-3 prostate): 23.7 µM
- TGI (HT29 colon): 28.4 µM
- TGI (HL-60(TB) leukemia): 27.7 µM
- TGI (NCI-H226 lung): 42.3 µM
- TGI (HS 578T breast): 53.7 µM
- TGI (CCRF-CEM leukemia): 22.3 µM
- TGI (786-0 renal): 23.8 µM
- TGI (RXF 393 renal): 28.4 µM
- TGI (SN12C renal): 35.8 µM
- TGI (MDA-MB-435): 30.5 µM
- TGI (HOP-92 NSCLC): 13.8 µM
- TGI (HCT-116 colon): 28.7 µM
- TGI (SK-OV-3 ovarian): 49.5 µM
- TGI (SW-620 colon): 35.4 µM
- TGI (LOX IMVI melanoma): 30.1 µM
- TGI (A498 renal): 52.8 µM
- TGI (MCF7 breast): 25.2 µM
- TGI (UO-31 renal): 23.6 µM
- TGI (NCI/ADR-RES ovarian): 49.8 µM
- TGI (K-562 leukemia): 88.8 µM
- TGI (A549 NSCLC): 98.9 µM
- TGI (UACC-257 melanoma): 24.1 µM

SMILES: CN(CCNC(=O)c1nn(-c2ccccc2)c2c1ccc1ccccc12)CCNC(=O)c1nn(-c2ccccc2)c2c1ccc1ccccc12
- TGI (SNB-19 CNS): 8.11 µM
- TGI (OVCAR-3 ovarian): 4.16 µM
- TGI (UACC-62 melanoma): 3.37 µM
- TGI (KM12 colon): 6.22 µM
- TGI (HCC-2998 colon): 2.92 µM
- TGI (EKVX NSCLC): 4.41 µM
- TGI (OVCAR-5 ovarian): 40.5 µM
- TGI (M14 melanoma): 3.85 µM
- TGI (HOP-62 NSCLC): 3.38 µM
- TGI (SNB-75 CNS): 5.55 µM
- TGI (U251 CNS): 3.05 µM
- TGI (HCT-15 colon): 3.39 µM
- TGI (MDA-N): 3.19 µM
- TGI (T-47D breast): 6.95 µM
- TGI (SF-295 CNS): 3.21 µM
- TGI (COLO 205 colon): 2.99 µM
- TGI (OVCAR-4 ovarian): 22.1 µM
- TGI (MOLT-4 leukemia): 1.72 µM
- TGI (CAKI-1 renal): 15.6 µM
- TGI (ACHN renal): 5.51 µM
- TGI (TK-10 renal): 3.37 µM
- TGI (NCI-H522 lung): 3.6 µM
- TGI (NCI-H460 lung): 2.99 µM
- TGI (SK-MEL-28 melanoma): 3.23 µM
- TGI (SF-539 CNS): 3.07 µM
- TGI (DU-145 prostate): 70.2 µM
- TGI (BT-549 breast): 21.8 µM
- TGI (SF-268 CNS): 4.6 µM
- TGI (SK-MEL-5 melanoma): 3.1 µM
- TGI (MDA-MB-231 breast): 2.74 µM
- TGI (OVCAR-8 ovarian): 3.29 µM
- TGI (RPMI-8226 leukemia): 1.8 µM
- TGI (MALME-3M melanoma): 3.84 µM
- TGI (NCI-H23 lung): 6.78 µM
- TGI (IGROV1 ovarian): 5.27 µM
- TGI (PC-3 prostate): 7.08 µM
- TGI (HT29 colon): 15.8 µM
- TGI (HL-60(TB) leukemia): 3.94 µM
- TGI (NCI-H226 lung): 7.7 µM
- TGI (HS 578T breast): 4.22 µM
- TGI (CCRF-CEM leukemia): 9.92 µM
- TGI (786-0 renal): 3.04 µM
- TGI (RXF 393 renal): 3.34 µM
- TGI (SN12C renal): 3.46 µM
- TGI (MDA-MB-435): 4 µM
- TGI (HOP-92 NSCLC): 3.79 µM
- TGI (HCT-116 colon): 2.87 µM
- TGI (SK-OV-3 ovarian): 7.28 µM
- TGI (SW-620 colon): 4.46 µM
- TGI (LOX IMVI melanoma): 3.18 µM
- TGI (A498 renal): 5.29 µM
- TGI (MCF7 breast): 3.91 µM
- TGI (UO-31 renal): 3.78 µM
- TGI (NCI/ADR-RES ovarian): 9.15 µM
- TGI (A549 NSCLC): 10.6 µM
- TGI (UACC-257 melanoma): 3.22 µM
- TGI (SK-MEL-2 melanoma): 3.5 µM

Reference: PubChem BioAssay (NCI)
